Tests used:
[1] = molecular target: T1, H^+ K^+ ATPase (Sus scrofa, UniProt P19156); test: H^+ K^+ ATPase Activity (K^+ -stimulated ATPase activity in lyophilised gastric vesicles); type: biochemical; settings: pig lyophilised gastric vesicles, pH 7.0, 37°, 30 minutes
T1 construct: Lyophilised gastric vesicles were prepared from pig fundic mucosa; from tissue; host or cells: pig fundic mucosa, lyophilised gastric vesicles
Method: The effects of a single high concentration (100 μM) of a compound of structure (I) on K-stimulated ATPase activity in lyophilised gastric vesicles was determined. Preferred compounds of structure (I) were also tested over a range of concentrations to determine IC50 values.
Lyophilised gastric vesicles were prepared from pig fundic mucosa after the method of Keeling et. al. (Biochem. Pharmacol., 34, 2967, 1985).
K^+ -stimulated ATPase activity was determined at 37° in the presence of the following: 10 mM Pipes/Tris buffer pH 7.0, 2 mM MgSO4, 1 mM KCl, 2 mM Na2 ATP and 3-6 μg protein/ml lyophilised gastric vesicles. After incubation for 30 minutes, the inorganic phosphate hydrolysed from ATP was determined by the method of Yoda and Hokin (Biochem. Biophys. Res. Commun. 40, 880, 1970).
Compounds of structure (I) were dissolved in dimethylsulphoxide which up to the highest concentration used had no effect on K^+ -stimulated ATPase activity.
The effect of the highest concentration of each compound of structure (I) on the recovery of a standard amount of inorganic phosphate was also determined.

[2] = tested on: pentagastrin stimulated gastric acid secretion; test: Rat Lumen Perfused Stomach (pentagastrin stimulated gastric acid secretion); type: in vivo; settings: for % inhibition of pentagastrin stimulated gastric acid secretion: i.v., 10 μmole/kg
Source text: B. Rat Lumen Perfused Stomach (pentagastrin stimulated gastric acid secretion).
Using a modification of the procedure described by Ghosh & Schild (Br. J. Pharmacology, 13, 54, 1958), the compounds of the following examples were found on i.v. administration at a concentration of 10 μmole/kg to cause an inhibition of pentagastrin stimulated gastric acid secretion as indicated in the following table. Results are given as % inhibition at 10 μmole/kg or ED50 (μM/kg): […]

T1 sequence (P19156 2-1034 limits assumed): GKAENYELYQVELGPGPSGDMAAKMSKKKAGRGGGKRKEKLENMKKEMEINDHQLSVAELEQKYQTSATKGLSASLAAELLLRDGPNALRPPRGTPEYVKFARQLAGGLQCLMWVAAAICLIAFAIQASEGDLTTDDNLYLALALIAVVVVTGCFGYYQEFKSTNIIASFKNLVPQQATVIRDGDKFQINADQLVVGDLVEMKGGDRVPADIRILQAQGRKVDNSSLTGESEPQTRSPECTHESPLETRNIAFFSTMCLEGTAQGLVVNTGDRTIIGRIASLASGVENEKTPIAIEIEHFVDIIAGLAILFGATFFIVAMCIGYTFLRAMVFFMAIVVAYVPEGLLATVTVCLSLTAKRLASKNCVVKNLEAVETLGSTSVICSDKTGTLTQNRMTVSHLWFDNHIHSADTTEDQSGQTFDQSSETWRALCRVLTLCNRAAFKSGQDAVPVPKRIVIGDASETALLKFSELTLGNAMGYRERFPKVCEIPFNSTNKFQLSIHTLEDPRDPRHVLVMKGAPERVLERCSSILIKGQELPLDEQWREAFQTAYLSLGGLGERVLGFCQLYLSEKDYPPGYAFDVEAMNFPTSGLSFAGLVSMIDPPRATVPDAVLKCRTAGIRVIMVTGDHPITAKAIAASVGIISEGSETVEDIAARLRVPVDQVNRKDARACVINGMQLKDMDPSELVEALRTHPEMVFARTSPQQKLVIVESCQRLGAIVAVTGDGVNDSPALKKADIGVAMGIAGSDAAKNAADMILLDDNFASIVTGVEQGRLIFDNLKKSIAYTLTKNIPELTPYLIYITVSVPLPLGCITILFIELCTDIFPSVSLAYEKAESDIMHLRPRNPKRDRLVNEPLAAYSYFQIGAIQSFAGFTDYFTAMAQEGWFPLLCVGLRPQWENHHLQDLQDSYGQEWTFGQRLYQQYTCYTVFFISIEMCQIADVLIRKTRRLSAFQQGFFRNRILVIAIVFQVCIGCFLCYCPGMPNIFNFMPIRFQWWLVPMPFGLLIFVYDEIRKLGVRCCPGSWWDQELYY
T1 sequence (P18434 whole entry partner): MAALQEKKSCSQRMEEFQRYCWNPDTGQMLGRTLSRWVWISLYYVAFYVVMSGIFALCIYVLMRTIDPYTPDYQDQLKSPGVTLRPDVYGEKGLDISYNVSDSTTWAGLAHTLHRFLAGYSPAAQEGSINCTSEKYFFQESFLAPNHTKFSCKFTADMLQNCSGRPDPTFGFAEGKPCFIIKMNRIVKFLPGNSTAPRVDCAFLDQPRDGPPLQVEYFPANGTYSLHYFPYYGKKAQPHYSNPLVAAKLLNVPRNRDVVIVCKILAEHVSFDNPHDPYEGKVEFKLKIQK

SMILES | IC50 [1] | ED50 ([2]; iv, read-out: ED50, inhibition of pentagastrin stimulated gastric acid secretion) | % inhibition of pentagastrin stimulated gastric acid secretion [2]
CCOC(=O)c1cnc2c(OC)cccc2c1Nc1cscc1C [Example 1, Ethyl 8-methoxy-4-(4-methyl-3-thienylamino)quinoline 3-carboxylate] | 0.53 µM | 4.62 µmol/kg | 
CCCC(=O)c1cnc2c(OC)cccc2c1Nc1ccsc1C(=O)OC [Example 3] |  |  | 48%
CCCC(=O)c1cnc2c(OC)cccc2c1Nc1sccc1C [Example 4, 3-Butyryl-4-(3-methyl-2-thienylamino)-8-methoxyquinoline] | 2.3 µM |  | 58%

More lines, in order of falling IC50 [1], values ahead:

IC50 [1] | SMILES | ED50 ([2]; iv, read-out: ED50, inhibition of pentagastrin stimulated gastric acid secretion) | % inhibition of pentagastrin stimulated gastric acid secretion [2]
3.4 µM | CCOC(=O)c1cnc2c(OC)cccc2c1Nc1cscc1OC [Example 5, Ethyl 8-methoxy-4-(4-methoxy-3-thienylamino)quinoline-3-carboxylate] |  | 41%
1.4 µM | CCCC(=O)c1cnc2c(OC)cccc2c1Nc1ccsc1CC [Example 2, 3-Butyryl-4-(2-ethyl-3-thienylamino)-8-methoxyquinoline] |  | 61%

— US5006535A, “Substituted heterocylic 4-aminoquinoline derivatives as gastric acid secretion inhibitors” (Smith Kline & French Laboratories Ltd., priority 1988, dated 1991)
